Patent US9981989B2, “Ataxia telengiectasia and Rad3-related (ATR) protein kinase inhibitors” (Atrin Pharmaceuticals LLC, priority 2014, dated 2018)

Legend:
[1] = tested on: Jurkat cells; assay: Phenotypical evaluation of ATR inhibition: S-phase arrest of Jurkat cells under aphidicolin replication stress, flow cytometry; format: cell-based, human; conditions: 0.2 μM aphidicolin, 24 hours
Experimental: It is known that inhibition of ATR in cells under replicative stress stalls DNA replication, which prevents cells from progressing through S-phase, leading to an accumulation of cells in this cell cycle phase (Kevin D. Smith, et al., Tim-Tipin dysfunction creates an indispensable reliance on the ATR-Chk1 pathway for continued DNA synthesis, J. Cell Biol. 2009, 187, 15-23). In the present experiment Jurkat cells were treated with 0.2 μM aphidicolin to induce replication stress in the presence of test compounds, at concentrations ranging from 10 μM to 0.1 μM, for 24 hours. Cells were fixed and cell-cycle profiles examined by flow cytometry as in Smith, J. Cell Bio. 2009. Test compounds were considered active if stalling of the cells in S-phase was observed.

[2] = molecular target: T1, ATR (Homo sapiens, UniProt Q13535); assay: ATR cellular kinase activity: Chk1 and H2AX phosphorylation in HCT119 WT BCL/XL-GFP cells with aphidicolin, western blot; format: cell-based; conditions: 5 μM aphidicolin, 4 hours
T1 construct: endogenous in cells; host or cells: HCT119 WT BCL/XL-GFP cells
T1 sequence (Q13535 whole entry): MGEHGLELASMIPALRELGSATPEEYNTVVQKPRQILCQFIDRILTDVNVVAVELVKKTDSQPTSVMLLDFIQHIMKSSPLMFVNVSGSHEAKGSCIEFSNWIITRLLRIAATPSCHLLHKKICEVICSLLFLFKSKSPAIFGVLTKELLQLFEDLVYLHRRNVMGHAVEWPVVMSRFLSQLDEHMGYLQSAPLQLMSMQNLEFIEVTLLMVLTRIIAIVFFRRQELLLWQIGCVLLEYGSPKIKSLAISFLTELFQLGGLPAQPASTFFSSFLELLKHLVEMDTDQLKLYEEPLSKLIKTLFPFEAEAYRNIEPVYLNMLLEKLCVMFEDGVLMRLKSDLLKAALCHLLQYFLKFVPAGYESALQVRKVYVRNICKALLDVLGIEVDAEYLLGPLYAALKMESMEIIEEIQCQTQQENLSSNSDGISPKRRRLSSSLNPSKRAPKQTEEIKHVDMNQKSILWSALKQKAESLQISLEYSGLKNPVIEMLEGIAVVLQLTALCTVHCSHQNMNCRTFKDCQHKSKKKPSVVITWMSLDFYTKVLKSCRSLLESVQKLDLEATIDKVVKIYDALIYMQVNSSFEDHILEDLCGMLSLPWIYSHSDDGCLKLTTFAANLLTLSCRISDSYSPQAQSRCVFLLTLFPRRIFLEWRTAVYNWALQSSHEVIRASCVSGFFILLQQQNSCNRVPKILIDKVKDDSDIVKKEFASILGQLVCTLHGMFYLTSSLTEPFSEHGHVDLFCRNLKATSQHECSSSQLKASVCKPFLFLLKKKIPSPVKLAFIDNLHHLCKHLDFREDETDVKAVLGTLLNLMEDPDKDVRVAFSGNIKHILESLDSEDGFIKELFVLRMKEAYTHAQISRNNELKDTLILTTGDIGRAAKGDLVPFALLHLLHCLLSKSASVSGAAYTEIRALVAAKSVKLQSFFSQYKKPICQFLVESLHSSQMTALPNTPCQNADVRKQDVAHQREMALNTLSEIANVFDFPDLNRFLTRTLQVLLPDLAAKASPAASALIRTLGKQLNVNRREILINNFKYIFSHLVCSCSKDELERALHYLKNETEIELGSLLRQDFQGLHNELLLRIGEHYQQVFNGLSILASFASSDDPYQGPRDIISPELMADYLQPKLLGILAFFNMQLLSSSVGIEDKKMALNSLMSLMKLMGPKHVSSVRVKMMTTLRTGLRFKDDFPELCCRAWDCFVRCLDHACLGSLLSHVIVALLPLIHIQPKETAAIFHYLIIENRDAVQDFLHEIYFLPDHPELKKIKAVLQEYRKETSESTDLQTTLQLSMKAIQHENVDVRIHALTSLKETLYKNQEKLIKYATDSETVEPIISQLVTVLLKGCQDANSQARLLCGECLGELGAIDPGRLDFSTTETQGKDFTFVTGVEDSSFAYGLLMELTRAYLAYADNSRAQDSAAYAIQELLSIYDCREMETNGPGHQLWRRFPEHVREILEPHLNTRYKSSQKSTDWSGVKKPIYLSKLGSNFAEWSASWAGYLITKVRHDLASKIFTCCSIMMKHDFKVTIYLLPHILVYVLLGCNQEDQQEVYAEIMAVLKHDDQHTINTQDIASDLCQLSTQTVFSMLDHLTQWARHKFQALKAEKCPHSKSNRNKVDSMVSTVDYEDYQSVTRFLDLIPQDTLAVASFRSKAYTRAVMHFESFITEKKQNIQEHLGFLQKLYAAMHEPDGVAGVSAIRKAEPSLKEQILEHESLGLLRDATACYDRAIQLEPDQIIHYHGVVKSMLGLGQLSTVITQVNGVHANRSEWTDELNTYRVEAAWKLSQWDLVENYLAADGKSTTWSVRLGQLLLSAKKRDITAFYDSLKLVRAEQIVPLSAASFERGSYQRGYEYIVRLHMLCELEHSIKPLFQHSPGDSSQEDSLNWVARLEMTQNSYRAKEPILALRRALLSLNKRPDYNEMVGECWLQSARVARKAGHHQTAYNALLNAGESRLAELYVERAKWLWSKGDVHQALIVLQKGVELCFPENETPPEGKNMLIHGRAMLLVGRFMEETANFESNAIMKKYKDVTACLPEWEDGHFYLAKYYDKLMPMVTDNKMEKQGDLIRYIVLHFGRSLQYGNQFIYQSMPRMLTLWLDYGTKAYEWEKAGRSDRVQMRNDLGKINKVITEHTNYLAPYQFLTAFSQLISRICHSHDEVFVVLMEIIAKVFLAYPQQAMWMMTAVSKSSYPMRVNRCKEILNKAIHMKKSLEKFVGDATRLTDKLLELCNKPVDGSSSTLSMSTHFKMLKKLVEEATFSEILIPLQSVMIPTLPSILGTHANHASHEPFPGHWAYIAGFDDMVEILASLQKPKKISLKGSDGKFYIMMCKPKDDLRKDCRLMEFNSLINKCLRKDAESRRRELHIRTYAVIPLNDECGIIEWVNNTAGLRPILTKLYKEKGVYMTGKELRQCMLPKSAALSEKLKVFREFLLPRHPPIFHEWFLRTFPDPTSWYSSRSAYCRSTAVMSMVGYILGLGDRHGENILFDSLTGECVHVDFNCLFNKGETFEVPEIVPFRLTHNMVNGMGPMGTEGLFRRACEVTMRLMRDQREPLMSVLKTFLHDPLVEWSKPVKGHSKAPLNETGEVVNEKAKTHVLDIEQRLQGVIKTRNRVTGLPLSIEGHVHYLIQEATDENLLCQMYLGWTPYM
T1 sequence (Q8WXE1 whole entry partner): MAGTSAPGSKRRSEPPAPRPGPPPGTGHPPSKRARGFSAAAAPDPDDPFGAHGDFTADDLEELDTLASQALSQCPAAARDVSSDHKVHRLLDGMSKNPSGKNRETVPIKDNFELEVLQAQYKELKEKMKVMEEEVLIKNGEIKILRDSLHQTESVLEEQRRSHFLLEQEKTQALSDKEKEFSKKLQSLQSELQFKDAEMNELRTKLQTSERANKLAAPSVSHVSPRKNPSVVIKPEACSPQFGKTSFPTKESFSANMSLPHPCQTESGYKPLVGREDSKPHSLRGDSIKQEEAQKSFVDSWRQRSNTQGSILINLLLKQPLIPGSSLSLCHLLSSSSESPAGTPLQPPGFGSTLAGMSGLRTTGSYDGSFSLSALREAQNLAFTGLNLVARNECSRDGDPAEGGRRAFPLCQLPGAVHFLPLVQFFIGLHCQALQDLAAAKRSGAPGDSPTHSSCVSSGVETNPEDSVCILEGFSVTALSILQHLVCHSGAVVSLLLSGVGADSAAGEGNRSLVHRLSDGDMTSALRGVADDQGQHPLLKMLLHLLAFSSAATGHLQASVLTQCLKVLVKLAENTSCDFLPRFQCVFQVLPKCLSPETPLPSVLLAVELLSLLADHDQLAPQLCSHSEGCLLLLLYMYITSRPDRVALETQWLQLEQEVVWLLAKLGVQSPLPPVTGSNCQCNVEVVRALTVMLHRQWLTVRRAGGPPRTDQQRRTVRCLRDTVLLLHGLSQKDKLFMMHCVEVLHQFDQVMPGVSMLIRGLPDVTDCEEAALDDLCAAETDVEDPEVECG
Excerpt: (§1) Chk1 phosphorylation, ATR's primary downstream target, is used as a read-out for ATR activity (Liu Q. et al., Chk1 is an essential kinase that is regulated by Atr and required for the G(2)/M DNA damage checkpoint, Genes Dev. 2000, Jun. 15, 14(12), 1448-1459; and (Jia Li and David F. Stern, Regulation of CHK2 by DNA-dependent Protein Kinase, J Biol. Chem. 2005, 280, 12041-12050). Chk2 phosphorylation (stimulated by 5 Gy irradiation), is a marker of ATM and DNA-PKcs activity, which together with ATR are closely related DNA-damage responsive PIKK family kinases (Shuhei Matsuoka et al., Ataxia telangiectasia-mutated phosphorylates Chk2 in vivo and in vitro, Proceedings of the National Academy of Sciences of the USA, 2000, 97(19), 10389-10394; Li J and Stern D F, Regulation of CHK2 by DNA-dependent protein kinase. The Journal of biological chemistry, 2005, 280, 12041-12050).
HCT119 WT BCL/XL-GFP cells were incubated with decreasing concentrations of test compounds (10-0.003 μM) and 5 μM aphidicolin for 4 hours prior to lysis. Cell lysis and western blotting were performed as in Gilad, Cancer Res, 2010, using the following antibodies as per manufacturers' instructions: pCHK1 (Ser345) (Cell signaling 133D3), pH2AX (S139) (Millipore 05636), GAPDH (loading control, Chemicon MAB374), and MCM3 (loading control, Santa Cruz sc-9850). Test compounds were considered active if significant inhibition of Chk1 phosphorylation was observed.

[3] = tested on: Chk2 phosphorylation; assay: ATR kinase selectivity: Chk2 phosphorylation in HCT119 WT BCL/XL-GFP cells after 5 Gy irradiation, western blot; format: cell-based, human; conditions: 5-0.01 μM compound, stimulated by 5 Gy irradiation, pChk2 (T68) (FIG. 4C)
Excerpt: as §1
HCT119 WT BCL/XL-GFP cells were incubated with decreasing concentrations of test compounds (5-0.01 μM) alone for 30 minutes followed by 5 Gy irradiation and cell lysis 20 minutes post irradiation. Cell lysis and western blotting were performed as in Gilad, Cancer Res, 2010, using the following antibodies as per manufacturers' instructions: pChk2 (T68) (Cell Signaling 2661S), GAPDH (loading control, Chemicon MAB374), and MCM3 (loading control, Santa Cruz sc-9850).

[4] = 1.25 μM compound, Jurkat cells (FIGS. 3A, 3B)

SMILES	inhibition of cell cycle progression by accumulation of cells in S-phase [1, 4]	inhibition of cell cycle progression by accumulation of cells in S-phase ([1]; 2.5 μM compound, Jurkat cells (FIG. 2))	inhibition of cell cycle progression by accumulation of cells in S-phase ([1]; 10 μM compound, Jurkat cells (FIG. 1))	concentration at which Chk1 phosphorylation is completely inhibited ([2]; pCHK1 (Ser345) (FIG. 4B)) [μLM]	lowest dose able to limit phosphorylation of Chk1 ([2]; pCHK1 (Ser345) (FIG. 4B)) [nM]	H2AX phosphorylation (DNA double strand breaks) ([2]; pH2AX (S139) (FIG. 4B))	levels of Chk2 phosphorylation [3]
CNS(=O)(=O)c1ccc(-c2cnc(N)c(C(=O)Nc3ccccc3OCCOCCOCCO)n2)cc1 [IM11, 3-amino-N-(2-(2-(2-(2-hydroxyethoxy)ethoxy)ethoxy)phenyl)-6-(4-(N-methylsulfamoyl)phenyl)pyrazine-2-carboxamide]	inactive						
CN1CCOCCOCCOc2ccccc2NC(=O)c2nc(cnc2N)-c2ccc(cc2)S1(=O)=O [P(1)]	significant inhibition of cell cycle progression	significant inhibition of cell cycle progression	significant inhibition of cell cycle progression				
CNCc1cccc2c1OCCOCCOCCN(C)S(=O)(=O)c1ccc(cc1)-c1cnc(N)c(n1)C(=O)N2 [P(4)]				≥ 1	30	increased H2AX phosphorylation	did not affect
